Among the data in PubChem BioAssay AID1259411 (Chemical Carcinogenesis Research Information System (CCRIS), 2018) are carcinogen call values, retold here.

Calls of active or inactive are those of the source. How the calls were made is not given here.

The subject of the data set is rodent carcinogenicity bioassays, tumor incidence. In words: CCRIS carcinogenicity studies. The text has this: The CCRIS database contains chemical records with carcinogenicity, mutagenicity, tumor promotion, and tumor inhibition test results. It was developed by the National Cancer Institute (NCI). Data are derived from studies cited in primary journals, current awareness tools, NCI reports, and other sources. Test results have been reviewed by experts in carcinogenesis and mutagenesis.
CCRIS provides historical information from the years 1985 - 2011. It is no longer updated.
This is an archive assay for CCRIS carcinogenicity studies.

As to `CCCl`, the carcinogen call (Species: MOUSE, Strain/Sex: B6C3F1/FEMALE, Route: INHALATION, Dose: 0, 15000 PPM IN AIR 6 HR/D 5 D/WK FOR 100 WK (STUDY DURATION: 100 WK), Tumor Site: Type of Lesion: LIVER: HEPATOCELLULAR CARCINOMA, LIVER: HEPATOCELLULAR ADENOMA OR CARCINOMA, UTERUS: CARCINOMA, Tumor Site: Type of Lesion: LIVER: HEPATOCELLULAR CARCINOMA, LIVER: HEPATOCELLULAR ADENOMA OR CARCINOMA, UTERUS: CARCINOMA) is “active; positive”; the carcinogen call (Species: Mouse, Strain/Sex: B6C3F1/Female (50/Group), Route: Inhalation, Dose: 0, 15,000 ppm 6 hr/d, 5 d/wk for 100 wk, Tumor Site: Type of Lesion: Uterus: carcinoma (2% vs 90%, p<10-8), Uterus: lymphoma (2% vs 14%, p=0.03), Liver: adenoma and carcinoma (6% vs 17%, p=, Tumor Site: Type of Lesion: Uterus: carcinoma (2% vs 90%, p<10-8), Uterus: lymphoma (2% vs 14%, p=0.03), Liver: adenoma and carcinoma (6% vs 17%, p=) was “active; positive”; the carcinogen call (Species: Mouse, Strain/Sex: B6C3F1/Male (50/Group), Route: Inhalation, Dose: 0, 15,000 ppm 6 hr/d, 5 d/wk for 100 wk) is “inactive; negative”; the carcinogen call (Species: RAT, Strain/Sex: F344/FEMALE, Route: INHALATION, Dose: 0, 15000 PPM IN AIR 6 HR/D 5 D/WK FOR 102 WK (STUDY DURATION: 102 WK), Tumor Site: Type of Lesion: BRAIN: ASTROCYTOMA) was “equivocal”; the carcinogen call (Species: RAT, Strain/Sex: F344/MALE, Route: INHALATION, Dose: 0, 15000 PPM IN AIR 6 HR/D 5 D/WK FOR 102 WK (STUDY DURATION: 102 WK), Tumor Site: Type of Lesion: SKIN: TRICHOEPITHELIOMA, SEBACEOUS GLAND ADENOMA OR BASAL CELL CARCINOMA) is reported as “equivocal”; the carcinogen call (Species: Rat, Strain/Sex: F344/Female (50/Group), Route: Inhalation, Dose: 0, 15,000 ppm 6 hr/d, 5 d/wk for 102 wk) is “inactive; negative”. The carcinogen call (Species: Rat, Strain/Sex: F344/Male (50/Group), Route: Inhalation, Dose: 0, 15,000 ppm 6 hr/d, 5 d/wk for 102 wk) was “inactive; negative”.

Turning to `CC(=O)Nc1ccc(/C=C/c2ccccc2)cc1`, the carcinogen call (Species: RAT, Strain/Sex: HOLTZMAN/MALE, Route: ORAL, Dose: 0, 0.0046% IN DIET FOR WK 0-13 (STUDY DURATION: 40 WK), Tumor Site: Type of Lesion: EAR DUCT GLAND: CARCINOMA) was “active; positive”.

`Cc1ccnc2ccccc12`: the carcinogen call by setting is: (Species: MOUSE, Strain/Sex: CD-1/FEMALE, Route: INTRAPERITONEAL, Dose: 0, 0.25, 0.5, 1.0 UMOL IN DMSO TO NEWBORN MICE ON DAYS 1, 8 AND 15 OF LIFE RESPECTIVELY (TOTAL DOSE: 1.75 UMOL) (STUDY D, Dose: 0, 0.25, 0.5, 1.0 UMOL IN DMSO TO NEWBORN MICE ON DAYS 1, 8 AND 15 OF LIFE RESPECTIVELY (TOTAL DOSE: 1.75 UMOL) (STUDY D) “inactive; negative”; (Species: MOUSE, Strain/Sex: CD-1/MALE, Route: INTRAPERITONEAL, Dose: 0, 0.25, 0.5, 1.0 UMOL IN DMSO TO NEWBORN MICE ON DAY 1,8 AND 15 OF LIFE RESPECTIVELY (TOTAL DOSE: 1.75 UMOL) (STUDY DUR, Dose: 0, 0.25, 0.5, 1.0 UMOL IN DMSO TO NEWBORN MICE ON DAY 1,8 AND 15 OF LIFE RESPECTIVELY (TOTAL DOSE: 1.75 UMOL) (STUDY DUR, Tumor Site: Type of Lesion: LIVER: ADENOMA, HEPATOMA) “active; positive”; (Species: RAT, Strain/Sex: SPRAGUE-DAWLEY/FEMALE, Route: SUBCUTANEOUS, Dose: 0, 200 UMOL/KG INTO SUPRASCAPULAR REGION ON DAY 1 OF LIFE FOLLOWED BY 0, 100 UMOL 1/WK AT WK 2-7 THEN 0, 200 UMOL ONCE A, Dose: 0, 200 UMOL/KG INTO SUPRASCAPULAR REGION ON DAY 1 OF LIFE FOLLOWED BY 0, 100 UMOL 1/WK AT WK 2-7 THEN 0, 200 UMOL ONCE A) “inactive; negative”; (Species: RAT, Strain/Sex: SPRAGUE-DAWLEY/MALE, Route: SUBCUTANEOUS, Dose: 0, 200 UMOL/KG INTO SUPRASCAPULAR REGION ON DAY 1 OF LIFE FOLLOWED BY 0, 100 UMOL 1/WK AT WK 2-7 THEN 0, 200 UMOL ONCE A, Dose: 0, 200 UMOL/KG INTO SUPRASCAPULAR REGION ON DAY 1 OF LIFE FOLLOWED BY 0, 100 UMOL 1/WK AT WK 2-7 THEN 0, 200 UMOL ONCE A) “inactive; negative”.

With `O=c1cc[nH]c(=S)[nH]1`, the carcinogen call runs as follows: (Species: MOUSE, Route: ORAL, Tumor Site: Type of Lesion: LIVER) “active; positive”; (Species: RAT, Route: ORAL, Tumor Site: Type of Lesion: THYROID GLAND) “active; positive”.

In the case of `O=S1OCC2C(CO1)C1(Cl)C(Cl)=C(Cl)C2(Cl)C1(Cl)Cl` (centres undefined), the carcinogen call (Species: MOUSE, Strain/Sex: B6C3F1/FEMALE, Route: ORAL, Dose: 0, 2.0, 3.9 PPM IN DIET, TWA, Dose: 0, 2.0, 3.9 PPM IN DIET, TWA) was “inactive; negative”; the carcinogen call (Species: MOUSE, Strain/Sex: NMRI/FEMALE, Route: ORAL, Dose: 0, 2, 6, 18 PPM IN THE DIET FOR 24 MO (STUDY DURATION: 24 MO), Dose: 0, 2, 6, 18 PPM IN THE DIET FOR 24 MO (STUDY DURATION: 24 MO)) is “inactive; negative”; the carcinogen call (Species: MOUSE, Strain/Sex: NMRI/MALE, Route: ORAL, Dose: 0, 2, 6, 18 PPM IN THE DIET FOR 24 MO (STUDY DURATION: 24 MO), Dose: 0, 2, 6, 18 PPM IN THE DIET FOR 24 MO (STUDY DURATION: 24 MO)) is “inactive; negative”; the carcinogen call (Species: Mouse, Strain/Sex: NMRI Hoe:NMRKf (SPF71)/Female (60/Group), Route: Oral, Dose: 0 (sesame oil), 2, 6, 18 ppm 97.1% endosulfan in diet for 24 mo, study duration 24 mo., Dose: 0 (sesame oil), 2, 6, 18 ppm 97.1% endosulfan in diet for 24 mo, study duration 24 mo.) is “inactive; negative”; the carcinogen call (Species: Mouse, Strain/Sex: NMRI Hoe:NMRKf (SPF71)/Male (60/Group), Route: Oral, Dose: 0 (sesame oil), 2, 6, 18 ppm 97.1% endosulfan in diet for 24 mo, study duration 24 mo., Dose: 0 (sesame oil), 2, 6, 18 ppm 97.1% endosulfan in diet for 24 mo, study duration 24 mo.) is “inactive; negative”; the carcinogen call (Species: RAT, Strain/Sex: OSBORNE-MENDEL/FEMALE, Route: ORAL, Dose: 0, 223, 445 PPM IN DIET, TWA, Dose: 0, 223, 445 PPM IN DIET, TWA) is “inactive; negative”. Besides, the carcinogen call is “inactive; negative” (Species: RAT, Strain/Sex: SPRAGUE-DAWLEY/FEMALE, Route: ORAL, Dose: 0, 3, 7.5, 15, 75 PPM IN THE DIET FOR 104 WK (STUDY DURATION: 104 WK), Dose: 0, 3, 7.5, 15, 75 PPM IN THE DIET FOR 104 WK (STUDY DURATION: 104 WK)); “inactive; negative” (Species: RAT, Strain/Sex: SPRAGUE-DAWLEY/MALE, Route: ORAL, Dose: 0, 3, 7.5, 15, 75 PPM IN THE DIET FOR 104 WK (STUDY DURATION: 104 WK), Dose: 0, 3, 7.5, 15, 75 PPM IN THE DIET FOR 104 WK (STUDY DURATION: 104 WK)); “inactive; negative” (Species: Rat, Strain/Sex: Crl:CD (SD) BR/Female (50/Group), Route: Oral, Dose: 0, 3.0, 7.5, 15.0, 75.0 ppm in corn oil in diet for 104 wk, study duration 104 wk, Dose: 0, 3.0, 7.5, 15.0, 75.0 ppm in corn oil in diet for 104 wk, study duration 104 wk); “inactive; negative” (Species: Rat, Strain/Sex: Crl:CD (SD) BR/Male (50/Group), Route: Oral, Dose: 0, 3.0, 7.5, 15.0, 75.0 ppm in corn oil in diet for 104 wk, study duration 104 wk, Dose: 0, 3.0, 7.5, 15.0, 75.0 ppm in corn oil in diet for 104 wk, study duration 104 wk).
